Measurements from ChEMBL document CHEMBL3886479, “1-H-pyrrolo[2,3-b]pyridine derivatives” (2016).

Biological target: T1, 3-phosphoinositide-dependent protein kinase 1 (Homo sapiens, UniProt O15530)
T1 sequence (O15530 whole entry): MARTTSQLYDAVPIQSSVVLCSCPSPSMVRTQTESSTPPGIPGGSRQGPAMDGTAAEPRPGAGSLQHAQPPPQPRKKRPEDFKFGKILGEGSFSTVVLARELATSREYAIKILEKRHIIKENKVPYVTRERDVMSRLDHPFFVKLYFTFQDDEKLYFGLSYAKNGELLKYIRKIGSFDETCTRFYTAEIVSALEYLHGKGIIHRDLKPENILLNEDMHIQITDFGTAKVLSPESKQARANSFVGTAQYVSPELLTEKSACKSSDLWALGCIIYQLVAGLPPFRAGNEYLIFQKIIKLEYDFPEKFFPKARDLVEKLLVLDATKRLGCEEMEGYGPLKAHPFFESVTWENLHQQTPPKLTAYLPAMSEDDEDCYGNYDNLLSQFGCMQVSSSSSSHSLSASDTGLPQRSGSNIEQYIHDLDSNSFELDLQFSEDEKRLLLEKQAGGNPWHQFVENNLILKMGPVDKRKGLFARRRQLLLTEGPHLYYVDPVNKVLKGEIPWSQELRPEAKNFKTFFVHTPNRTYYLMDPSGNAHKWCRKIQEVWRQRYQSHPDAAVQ
Test: Luminex Assay: The cellular assay for the determination of the PDK1 kinase activity is carried out as a Luminex assay in the 96-well format. PC3 cells are sown at 20,000 cells per well in 100 ul of medium (45% of […]/45% of Ham's F12/10% of FCS) and incubated on the following day for 30 min with a serial dilution of the test substance (7 concentrations) under serum-free conditions. The cells are subsequently lysed using 90 ul of lysis buffer (20 mM tris/HCl pH 8.0, 150 mM NaCl, 1% of NP40, 10% of glycerol, 1% of phosphatase inhibitor I, 1% of phosphatase inhibitor II, 0.1% of protease inhibitor cocktail III, 0.01% of benzonase) per well, and the lysates are separated off from insoluble cell constituents by means of centrifugation through a 96-well filter plate (0.65 um). The lysates are incubated overnight at 4° C. with shaking with Luminex beads to which an anti-total PKB antibody is coupled. The detection is carried out on the following day by addition of a phospho-T308-PKB antibody and a species-specific peroxidase-labelled secondary antibody.
Format: cell-based
Conditions: pc-3

Cn1cc(-c2cnc3[nH]cc(-c4cc(N(CCC#N)c5ccccc5)nc(N)n4)c3c2)cn1
IC50: 7.1 nM
